Test results from paper PMC12396409, “Screening and hit evaluation of a microbial metabolite library against the pathogenic Plasmodium falciparum and Toxoplasma gondii parasites” (International Journal for Parasitology: Drugs and Drug …, 2025).
Like-named read-outs stand apart in the source and are kept apart here.

Columns and labels:
[1] = system: T. gondii RH strain (RH-Tub-eYFP) tachyzoites; test: microbe, parasite or virus in culture; assay type: cell-based, Toxoplasma gondii
[2] = system: P. falciparum 3D7 parasites; test: P. falciparum growth inhibition assay, 1-cycle (72 h treatment), SYBR DNA staining (library screen at 2 μg/mL and dose-response); assay type: cell-based, Plasmodium falciparum
[3] = system: P. falciparum 3D7 parasites; test: P. falciparum growth inhibition assay, 2-cycle (120 h treatment), delayed-death screen and dose-response; assay type: cell-based, Plasmodium falciparum
[4] = Plasmodium falciparum, 3D7, P. falciparum, 72 h, parasite screen 2 μg/mL, % growth, replicate 1, read-out: Pf_72h_%Growth_Rep1
[5] = Plasmodium falciparum, 3D7, P. falciparum, 72 h, parasite screen 2 μg/mL, % growth, replicate 2, read-out: Pf_72h_%Growth_Rep2
[6] = Plasmodium falciparum, 3D7, P. falciparum, 120 h, parasite screen 2 μg/mL, % growth, replicate 1, read-out: Pf_120h_%Growth_Rep1
[7] = Plasmodium falciparum, 3D7, P. falciparum, 120 h, parasite screen 2 μg/mL, % growth, replicate 2, read-out: Pf_120h_%Growth_Rep2
[8] = T. gondii, 72 h, 2 μg/mL; mean of both replicates, growth (% of control)
[9] = T. gondii, 72 h, 2 μg/mL; values are growth (% of control)
[10] = library screen at 2 μg/mL, 72 h, % growth, replicate 1
[11] = library screen at 2 μg/mL, 72 h, % growth, replicate 2

SMILES: CO[C@H]1[C@H](O)[C@@H](O)[C@H](n2c3c(Cl)cccc3c3c4c(c5c6cccc(Cl)c6[nH]c5c32)C(=O)NC4=O)O[C@@H]1CO [Rebeccamycin]
- percent parasite growth at 2 µg/mL ([1]; Toxoplasma gondii, 72 h, T. gondii, 72 h, parasite screen 2 μg/mL, % growth, replicate 1; read-out: Tg_72h_%Growth_Rep1): 35.4%
- percent parasite growth at 2 µg/mL ([1]; Toxoplasma gondii, 72 h, T. gondii, 72 h, parasite screen 2 μg/mL, % growth, replicate 2; read-out: Tg_72h_%Growth_Rep2): 70.9%
- activity at 2 µg/mL ([2]; Plasmodium falciparum, 3D7; P. falciparum, 2 μg/mL, 72 h; read-out: 1) Growth (%) at 72 h): 21.6%
- activity at 2 µg/mL [2, 4]: 22.6%
- activity at 2 µg/mL [2, 5]: 20.5%
- 3) Fold change (72 h/120 h) ([3]; P. falciparum, growth at 72 h / growth at 120 h, 2 μg/mL): 1.2
- activity at 2 µg/mL ([3]; Plasmodium falciparum, 3D7; P. falciparum, 2 μg/mL, 120 h; read-out: 2) Growth (%) at 120 h): 18.4%
- activity at 2 µg/mL [3, 6]: 22.3%
- activity at 2 µg/mL [3, 7]: 14.5%

SMILES: COC(=O)[C@]1(Cc2ccc3c(c2)C[C@H](O)C(C)(C)O3)OC(=O)C(O)=C1c1ccc(O)cc1 [Butyrolactone V]
- percent parasite growth at 2 µg/mL ([1]; Toxoplasma gondii, 72 h, T. gondii, 72 h, screen at 2 μg/mL, replicate 1; read-out: Tg_72h_%Growth_Rep1): 130%
- percent parasite growth at 2 µg/mL ([1]; Toxoplasma gondii, 72 h, T. gondii, 72 h, screen at 2 μg/mL, replicate 2; read-out: Tg_72h_%Growth_Rep2): 90%
- activity at 2 µg/mL ([2]; Plasmodium falciparum, 3D7, P. falciparum, 72 h, screen at 2 μg/mL, replicate 1, read-out: Pf_72h_%Growth_Rep1): 83.9%
- activity at 2 µg/mL ([2]; Plasmodium falciparum, 3D7, P. falciparum, 72 h, screen at 2 μg/mL, replicate 2, read-out: Pf_72h_%Growth_Rep2): 90.6%
- activity at 2 µg/mL ([3]; Plasmodium falciparum, 3D7, P. falciparum, 120 h, screen at 2 μg/mL, replicate 1, read-out: Pf_120h_%Growth_Rep1): 100%
- activity at 2 µg/mL ([3]; Plasmodium falciparum, 3D7, P. falciparum, 120 h, screen at 2 μg/mL, replicate 2, read-out: Pf_120h_%Growth_Rep2): 94.5%

SMILES: Cc1cc2nc3c(=O)[nH]c(=O)nc-3n(C[C@H](O)[C@H](O)[C@H](O)CO)c2cc1N(C)C [Roseoflavin]
- Mean [1, 8]: 28.14
- Replicate 1 [1, 9]: 40.04
- Replicate 2 [1, 9]: 16.23
- Tg_72h_%Growth_Rep1 ([1]; T. gondii, 72 h, parasite screen 2 μg/mL, % growth, replicate 1): 40.04%
- Tg_72h_%Growth_Rep2 ([1]; T. gondii, 72 h, parasite screen 2 μg/mL, % growth, replicate 2): 16.23%
- Pf_72h_%Growth_Rep1 ([2]; P. falciparum, 72 h, parasite screen 2 μg/mL, % growth, replicate 1): 11.70%
- Pf_72h_%Growth_Rep2 ([2]; P. falciparum, 72 h, parasite screen 2 μg/mL, % growth, replicate 2): 10.95%
- Pf_120h_%Growth_Rep1 ([3]; P. falciparum, 120 h, parasite screen 2 μg/mL, % growth, replicate 1): 4.42%
- Pf_120h_%Growth_Rep2 ([3]; P. falciparum, 120 h, parasite screen 2 μg/mL, % growth, replicate 2): 7.07%

SMILES: CO[C@H]1C[C@H](O[C@H]2[C@H](C)O[C@@H](O[C@@H]3/C(C)=C/C[C@@H]4C[C@@H](C[C@]5(C=C[C@H](C)[C@@H](C6CCCCC6)O5)O4)OC(=O)[C@@H]4C=C(C)[C@@H](O)[C@H]5OC/C(=C\C=C\[C@@H]3C)[C@]54O)C[C@@H]2OC)O[C@@H](C)[C@@H]1O [Doramectin]
- Tg_72h_%Growth_Rep1 [1, 10]: 127.97%
- Tg_72h_%Growth_Rep2 [1, 11]: 102.84%
- Pf_72h_%Growth_Rep1 [2, 10]: 86.87%
- Pf_72h_%Growth_Rep2 [2, 11]: 79.49%
- Pf_120h_%Growth_Rep1 ([3]; library screen at 2 μg/mL, 120 h, % growth, replicate 1): 100.88%
- Pf_120h_%Growth_Rep2 ([3]; library screen at 2 μg/mL, 120 h, % growth, replicate 2): 96.33%

SMILES: C/C(=C\c1csc(C)n1)[C@@H]1C[C@@H]2O[C@@H]2CCC[C@H](C)[C@H](O)[C@@H](C)C(=O)C(C)(C)[C@@H](O)CC(=O)O1 [Epothilone A]
- percent parasite growth at 2 µg/mL ([1]; Toxoplasma gondii, 72 h, library screen at 2 μg/mL, 72 h, % growth, replicate 1; read-out: Tg_72h_%Growth_Rep1): 2.49%
- percent parasite growth at 2 µg/mL ([1]; Toxoplasma gondii, 72 h, library screen at 2 μg/mL, 72 h, % growth, replicate 2; read-out: Tg_72h_%Growth_Rep2): 2.65%
- activity at 2 µg/mL ([2]; Plasmodium falciparum, 3D7, 72 h, library screen at 2 μg/mL, 72 h, % growth, replicate 1, read-out: Pf_72h_%Growth_Rep1): 5.34%
- activity at 2 µg/mL ([2]; Plasmodium falciparum, 3D7, 72 h, library screen at 2 μg/mL, 72 h, % growth, replicate 2, read-out: Pf_72h_%Growth_Rep2): 6.86%
- activity at 2 µg/mL ([3]; Plasmodium falciparum, 3D7, 120 h, library screen at 2 μg/mL, 120 h, % growth, replicate 1, read-out: Pf_120h_%Growth_Rep1): -6.26%
- activity at 2 µg/mL ([3]; Plasmodium falciparum, 3D7, 120 h, library screen at 2 μg/mL, 120 h, % growth, replicate 2, read-out: Pf_120h_%Growth_Rep2): 10.7%

SMILES: CCCCCC1=C/C(=C/c2[nH]c(-c3ccc[nH]3)cc2OC)N=C1C [Prodigiosin]
- Mean [1, 8]: 25.60
- Replicate 1 [1, 9]: 39.74
- Replicate 2 [1, 9]: 11.46
- percent parasite growth at 2 µg/mL ([1]; Toxoplasma gondii; T. gondii, 72 h, parasite screen 2 μg/mL, % growth, replicate 1; read-out: Tg_72h_%Growth_Rep1): 39.7%
- percent parasite growth at 2 µg/mL ([1]; Toxoplasma gondii; T. gondii, 72 h, parasite screen 2 μg/mL, % growth, replicate 2; read-out: Tg_72h_%Growth_Rep2): 11.5%
- activity at 2 µg/mL [2, 4]: 5.96%
- activity at 2 µg/mL [2, 5]: 4.13%
- activity at 2 µg/mL [3, 6]: -0.86%
- activity at 2 µg/mL [3, 7]: 19.4%
